Experimental data taken from ChEMBL document CHEMBL4007428, “Modulating the selectivity of matriptase-2 inhibitors with unnatural amino acids” (Eur J Med Chem, 2017).
pKi: −log10 of the molar value.

Tests used:
[1] = biological target: T1, Suppressor of tumorigenicity 14 protein (Homo sapiens, UniProt Q9Y5Y6)
T1 sequence (Q9Y5Y6 whole entry): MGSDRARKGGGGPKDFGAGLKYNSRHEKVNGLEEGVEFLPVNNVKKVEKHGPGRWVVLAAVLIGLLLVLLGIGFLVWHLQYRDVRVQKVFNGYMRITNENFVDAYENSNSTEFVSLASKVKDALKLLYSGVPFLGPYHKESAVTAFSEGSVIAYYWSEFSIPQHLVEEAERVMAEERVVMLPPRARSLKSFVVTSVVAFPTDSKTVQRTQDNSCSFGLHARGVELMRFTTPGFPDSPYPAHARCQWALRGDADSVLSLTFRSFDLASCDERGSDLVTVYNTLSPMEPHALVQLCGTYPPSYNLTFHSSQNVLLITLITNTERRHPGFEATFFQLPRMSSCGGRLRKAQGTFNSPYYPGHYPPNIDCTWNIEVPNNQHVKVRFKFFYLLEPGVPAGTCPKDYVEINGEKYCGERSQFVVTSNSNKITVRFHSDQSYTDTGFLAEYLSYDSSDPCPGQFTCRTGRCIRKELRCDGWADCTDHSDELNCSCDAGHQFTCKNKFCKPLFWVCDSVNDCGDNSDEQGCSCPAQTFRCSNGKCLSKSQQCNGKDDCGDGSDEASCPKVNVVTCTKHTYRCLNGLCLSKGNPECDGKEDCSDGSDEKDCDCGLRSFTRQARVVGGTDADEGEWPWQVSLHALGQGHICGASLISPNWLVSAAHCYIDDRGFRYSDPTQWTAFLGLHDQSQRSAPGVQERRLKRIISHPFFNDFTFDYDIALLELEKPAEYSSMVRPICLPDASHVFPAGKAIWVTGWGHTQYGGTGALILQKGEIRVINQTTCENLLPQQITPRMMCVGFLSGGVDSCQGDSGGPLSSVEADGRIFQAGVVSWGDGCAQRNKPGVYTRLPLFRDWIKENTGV
Description: Inhibition of recombinant human matriptase (596 to 855 residues) expressed in Escherichia coli using Boc-Gln-Ala-ArgAMC as substrate measured for 1200 mins by fluorescence assay

[2] = biological target: T2, Transmembrane protease serine 6 (Homo sapiens, UniProt Q8IU80); experiment: Inhibition of recombinant human C-terminal V5-His-tagged matriptase-2 expressed in Drosophila S2 cells using Boc-Gln-Ala-ArgAMC as substrate measured for 1200 mins by fluorescence assay
T2 sequence (Q8IU80 whole entry): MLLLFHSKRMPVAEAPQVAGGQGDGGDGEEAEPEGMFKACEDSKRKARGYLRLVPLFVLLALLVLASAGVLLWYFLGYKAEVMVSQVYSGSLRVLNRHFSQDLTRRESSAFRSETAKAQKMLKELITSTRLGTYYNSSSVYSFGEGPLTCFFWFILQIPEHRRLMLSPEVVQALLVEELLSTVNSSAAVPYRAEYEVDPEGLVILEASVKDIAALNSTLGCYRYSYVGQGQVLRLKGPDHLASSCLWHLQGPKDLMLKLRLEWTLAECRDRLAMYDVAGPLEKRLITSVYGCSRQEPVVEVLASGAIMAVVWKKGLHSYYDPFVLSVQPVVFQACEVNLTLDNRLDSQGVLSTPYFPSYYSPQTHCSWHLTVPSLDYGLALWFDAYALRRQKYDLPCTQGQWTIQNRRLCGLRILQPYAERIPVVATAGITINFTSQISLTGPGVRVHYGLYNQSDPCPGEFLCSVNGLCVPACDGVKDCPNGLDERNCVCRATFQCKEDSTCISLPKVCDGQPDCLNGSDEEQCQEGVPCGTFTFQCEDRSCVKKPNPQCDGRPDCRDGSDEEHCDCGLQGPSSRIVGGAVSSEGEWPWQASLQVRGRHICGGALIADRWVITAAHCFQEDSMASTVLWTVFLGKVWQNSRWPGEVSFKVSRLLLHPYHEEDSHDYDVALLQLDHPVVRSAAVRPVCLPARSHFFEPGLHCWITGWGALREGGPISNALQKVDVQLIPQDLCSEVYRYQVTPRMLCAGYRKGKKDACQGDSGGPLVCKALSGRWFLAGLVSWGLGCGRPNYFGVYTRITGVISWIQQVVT

Homo sapiens = species: Homo sapiens; experiment: Selectivity ratio of Ki for recombinant human matriptase (596 to 855 residues) expressed in Escherichia coli to Ki for recombinant human C-terminal V5-His-tagged matriptase-2 expressed in Drosophila S2 cells
[3] = Stability in mouse plasma assessed as parent compound remaining after 24 hrs; assay type: ADME, cell-free; settings: read-out: Stability
[4] = biological target: T3, Transmembrane protease serine 6 (Homo sapiens) (UniProt Q8IU80); experiment: Reversible inhibition of recombinant human C-terminal V5-His-tagged matriptase-2 expressed in Drosophila S2 cells assessed as dissociation half time using Boc-Gln-Ala-ArgAMC as substrate measured for 1200 mins by fluorescence assay
T3 sequence (whole entry): T2 sequence (Q8IU80 whole entry)

pKi [1] | pKi [2] | Compound | Ratio Ki (Homo sapiens) | remaining at 24 h [3] | T1/2 [4]
4.82 | 6.25 | CC(C)(C)[C@H](NC(=O)[C@H](CCc1ccccc1)NC(=O)CCc1ccccc1)C(=O)N[C@@H](CCCNC(=N)N)C(=O)c1nc2ccccc2s1 | 27 | – | –
6.70 | 8.51 | C[C@H](O)[C@H](NC(=O)[C@H](CCc1ccccc1)NC(=O)CCc1ccccc1)C(=O)N[C@@H](CCCNC(=N)N)C(=O)c1nc2ccccc2s1 | 64 | > 75% | –
6.82 | 8.30 | CC[C@@H](C)[C@@H](NC(=O)[C@H](CCc1ccccc1)NC(=O)CCc1ccccc1)C(=O)N[C@@H](CCCNC(=N)N)C(=O)c1nc2ccccc2s1 | 30 | – | –
7.41 | 8.22 | CC(C)[C@H](NC(=O)[C@H](Cc1ccc(O)cc1)NC(=O)CC12CC3CC(CC(C3)C1)C2)C(=O)N[C@@H](CCCNC(=N)N)C(=O)c1nc2ccccc2s1 | 6 | – | –
7.15 | 8.46 | CC(C)[C@H](NC(=O)[C@H](Cc1ccc(OCc2ccccc2)cc1)NC(=O)CCc1ccccc1)C(=O)N[C@@H](CCCNC(=N)N)C(=O)c1nc2ccccc2s1 | 20 | – | –
6.92 | 8.28 | CC(C)C[C@H](NC(=O)[C@H](CCc1ccccc1)NC(=O)CCc1ccccc1)C(=O)N[C@@H](CCCNC(=N)N)C(=O)c1nc2ccccc2s1 | 23 | – | –
7.59 | 8.64 | CCC[C@H](NC(=O)[C@H](CCc1ccccc1)NC(=O)CCc1ccccc1)C(=O)N[C@@H](CCCNC(=N)N)C(=O)c1nc2ccccc2s1 | 11 | – | –
7.68 to 7.70 | 8.80 to 8.82 | CC[C@H](NC(=O)[C@H](CCc1ccccc1)NC(=O)CCc1ccccc1)C(=O)N[C@@H](CCCNC(=N)N)C(=O)c1nc2ccccc2s1 | 13 | – | 18 min
6.64 | 8.40 | CC[C@H](C)[C@H](NC(=O)[C@H](CCc1ccccc1)NC(=O)CCc1ccccc1)C(=O)N[C@@H](CCCNC(=N)N)C(=O)c1nc2ccccc2s1 | 58 | – | –
6.92 | 8.28 | C[C@@H](O)[C@H](NC(=O)[C@H](CCc1ccccc1)NC(=O)CCc1ccccc1)C(=O)N[C@@H](CCCNC(=N)N)C(=O)c1nc2ccccc2s1 | 23 | – | –
5.86 | 6.47 | N=C(N)NCCC[C@H](NC(=O)[C@@H](NC(=O)C(Cc1ccc(O)cc1)NC(=O)CCc1ccccc1)C(c1ccccc1)c1ccccc1)C(=O)c1nc2ccccc2s1 (single isomer, unassigned) | 4 | – | –
7.37 | 8.76 | CC(C)[C@H](NC(=O)C(Cc1ccc(O)cc1)NC(=O)CCc1ccccc1)C(=O)N[C@@H](CCCNC(=N)N)C(=O)c1nc2ccccc2s1 (single isomer, unassigned) | 25 | – | –
7.55 | 8.22 | CC(C)CCC(=O)NC(Cc1ccc(O)cc1)C(=O)N[C@H](C(=O)N[C@@H](CCCNC(=N)N)C(=O)c1nc2ccccc2s1)C(C)C (single isomer, unassigned) | 5 | – | –
6.62 | 8.15 | CC(C)[C@@H](NC(=O)[C@H](CCc1ccccc1)NC(=O)CCc1ccccc1)C(=O)N[C@@H](CCCNC(=N)N)C(=O)c1nc2ccccc2s1 | 34 | – | –
7.19 | 8.68 | CC(C)[C@H](NC(=O)[C@H](CCc1ccccc1)NC(=O)CCc1ccccc1)C(=O)N[C@@H](CCCNC(=N)N)C(=O)c1nc2ccccc2s1 | 31 | – | –
7.29 | 8.59 | CC[C@@H](C)[C@H](NC(=O)[C@H](CCc1ccccc1)NC(=O)CCc1ccccc1)C(=O)N[C@@H](CCCNC(=N)N)C(=O)c1nc2ccccc2s1 | 20 | – | –
4.92 | 6.16 | CC[C@H](C)[C@@H](NC(=O)[C@H](CCc1ccccc1)NC(=O)CCc1ccccc1)C(=O)N[C@@H](CCCNC(=N)N)C(=O)c1nc2ccccc2s1 | 17 | – | –
– | – | CC(C)[C@H](NC(=O)C(Cc1ccc(O)cc1)NC(=O)[C@@H](N)Cc1ccc(O)cc1)C(=O)N[C@@H](CCCNC(=N)N)C(=O)c1nc2ccccc2s1 (single isomer, unassigned) | 12 | 0% | –

Compound | pKi [1] | pKi [2] | Ratio Ki (Homo sapiens) | remaining at 24 h [3] | T1/2 [4]
CC(C)[C@H](NC(=O)C(Cc1ccc(O)cc1)NC(=O)CCc1ccc(O)cc1)C(=O)N[C@@H](CCCNC(=N)N)C(=O)c1nc2ccccc2s1 (single isomer, unassigned) | 7.42 to 7.47 | 8.70 to 8.92 | 17 | 40% | 24 min
CC(C)[C@H](NC(=O)[C@H](Cc1ccccc1)NC(=O)[C@@H](N)Cc1ccc(O)cc1)C(=O)N[C@@H](CCCNC(=N)N)C(=O)c1nc2ccccc2s1 | 7.20 | 8.05 | 7 | – | –
CC(C)[C@H](NC(=O)[C@H](Cc1cccc(Cl)c1)NC(=O)[C@@H](N)Cc1ccc(O)cc1)C(=O)N[C@@H](CCCNC(=N)N)C(=O)c1nc2ccccc2s1 | 7.47 | 8.30 | 7 | – | –
CC(C)[C@H](NC(=O)[C@H](Cc1cscn1)NC(=O)CCc1ccccc1)C(=O)N[C@@H](CCCNC(=N)N)C(=O)c1nc2ccccc2s1 | 7.92 to 8.40 | 8.92 to 9.40 | 10 | > 75% | 48 min
N=C(N)NCCC[C@H](NC(=O)[C@H](Cc1ccc(O)c(O)c1)NC(=O)C(Cc1ccc(O)cc1)NC(=O)[C@@H](N)Cc1ccc(O)cc1)C(=O)c1nc2ccccc2s1 (single isomer, unassigned) | 7.92 | 8.30 | 2 | – | –
N=C(N)NCCC[C@H](NC(=O)[C@H](Cc1ccc2ccccc2c1)NC(=O)C(Cc1ccc(O)cc1)NC(=O)[C@@H](N)Cc1ccc(O)cc1)C(=O)c1nc2ccccc2s1 (single isomer, unassigned) | – | 8.28 | – | – | –
N=C(N)NCCC[C@H](NC(=O)[C@H](Cc1c[nH]cn1)NC(=O)C(Cc1ccc(O)cc1)NC(=O)[C@@H](N)Cc1ccc(O)cc1)C(=O)c1nc2ccccc2s1 (single isomer, unassigned) | 7.32 | 7.25 | 0.9 | – | –
N=C(N)NCCC[C@H](NC(=O)[C@H](Cc1cscn1)NC(=O)C(Cc1ccc(O)cc1)NC(=O)[C@@H](N)Cc1ccc(O)cc1)C(=O)c1nc2ccccc2s1 (single isomer, unassigned) | 7.70 | 7.89 | 2 | – | –
N=C(N)NCCC[C@H](NC(=O)[C@H](Cc1c[nH]c2ccccc12)NC(=O)C(Cc1ccc(O)cc1)NC(=O)[C@@H](N)Cc1ccc(O)cc1)C(=O)c1nc2ccccc2s1 (single isomer, unassigned) | 8.25 | 8.51 | 2 | – | –
N=C(N)NCCC[C@H](NC(=O)[C@H](Cc1ccc(O)cc1)NC(=O)C(Cc1ccc(O)cc1)NC(=O)[C@@H](N)Cc1ccc(O)cc1)C(=O)c1nc2ccccc2s1 (single isomer, unassigned) | 8.15 | 8.96 | 6 | – | –
N=C(N)NCCC[C@H](NC(=O)[C@H](Cc1cccs1)NC(=O)C(Cc1ccc(O)cc1)NC(=O)[C@@H](N)Cc1ccc(O)cc1)C(=O)c1nc2ccccc2s1 (single isomer, unassigned) | 7.72 | 8.22 | 3 | – | –
